Measured values: patent US9439920B2, “Composition for the management of nausea and vomiting” (Duchesnay Inc., priority 2013, dated 2016)

Key:
Format in all cases: in vivo, human
[1] = Randomized controlled bioavailability study in healthy women, three way cross over (Example 2)
From the text: Three Way Cross Over Design.
Bioavailability; Tmax, Cmax and AUC0-t between each treatment.

[2] = Another study with different doses of R5P (5, 10 or 20 mg) in healthy women; details: 8 healthy women, controls not administered with R5P
Experimental: In another study, different doses of R5P were tested: 5, 10 or 20 mg of R5P (i.e. equivalent to the formulations administered to Treatment group C above, with the exception that 5, 10 or 20 mg of R5P was used rather than 40 mg R5P; 8 healthy women for each dose), and the PLP levels were compared to those measured in control healthy women not administered with R5P (24 subjects, equivalent to Treatment group A above).

[3] = tested on: pregnant women suffering from nausea and vomiting of pregnancy; assay: Randomized controlled efficacy trial of Diclectin vs. placebo in pregnant women: plasma levels vs PUQE score; details: pregnant women treated with Diclectin for 14 days
Experimental: A randomized controlled efficacy trial of Diclectin® vs. placebo in pregnant women was carried out as follows, with the results shown in FIG. 1.
To assess the plasma levels of Doxylamine and PLP and the severity of nausea and vomiting of pregnancy symptoms in pregnant women treated with Diclectin®.
The demographic and medical characteristics of the subjects are as described in Koren et al., Am J Obstet Gynecol 2010; 203(6):571.e1-7.
The study design is as described in Koren et al., 2010, supra. Briefly, a randomized, double-blind, multicenter placebo controlled trial studying pregnant women suffering from nausea and vomiting of pregnancy, analyzed by intention to treat. Women received Diclectin (n=131) or placebo (n=125) for 14 days. Nausea and vomiting of pregnancy symptoms were evaluated daily using the pregnancy unique quantification of emesis scale (PUQE-24, Ebrahimi et al., J Obstet Gynaecol Can. 2009 September; 31(9):803-7).

[4] = co-administration of 40 mg of R5P

| PLP levels at 12h [1, 4] | effect on PLP levels relative to controls ([2]; 5 mg of R5P) | effect on PLP levels relative to controls ([2]; 10 mg of R5P) | SMILES | general improvement in the pharmacokinetic profile of PLP ([1]; administration of R5P) | increase in the plasma level of PLP (AUC 0-2 h) following administration of Pyridoxine [1, 4] | PLP concentration (using AUC) over the period 0-12 h ([1]; plasma, healthy women, fasted, compared with Diclectin (PA_DR), one-way ANOVA P>0.05) | effect on pharmacokinetics of PLP relative to controls ([2]; 20 mg of R5P) | relation of average plasma concentration to severity of NVP (PUQE score) [3] |
| --- | --- | --- | --- | --- | --- | --- | --- | --- |
| does not significantly affect | no significant effect | no significant effect | Cc1cc2nc3c(=O)[nH]c(=O)nc-3n(C[C@H](O)[C@H](O)[C@H](O)COP(=O)(O)O)c2cc1C [R5P, riboflavin-5-phosphate] | less inter-subject variations and decreased time to reach steady-state PLP levels | faster increase in the plasma level of PLP | did not increase PLP levels significantly | some improvement in the pharmacokinetics of PLP |  |
|  |  |  | Cc1ncc(COP(=O)(O)O)c(C=O)c1O [PLP, Pyridoxal 5-phosphate] |  |  |  |  | correlates with a decrease in the severity of the NVP |
|  |  |  | CN(C)CCOC(C)(c1ccccc1)c1ccccn1 (stereo not drawn) [Doxylamine, reference compound] |  |  |  |  | correlates with a decrease in the severity of the NVP |
